Assay results published in patent US12280063B2, “Anti-retroviral therapies and reverse transcriptase inhibitors for treatment of Alzheimer's disease” (Sanford Burnham Prebys Medical Discovery Institute, priority 2018, dated 2025).

Columns and labels:
[1] = system: reverse transcriptase activity in CHO cell lysate; test: In vitro reverse transcriptase activity assay in CHO cell lysate; assay type: biochemical; conditions: four independent experiments, FIG. 20E, read-out: IC50, decrease of reverse transcriptase activity
Method: In one example, lysates were prepared in reverse transcriptase disruption buffer and contained Complete™, EDTA-free Protease Inhibitor Cocktail (Sigma-Aldrich, St. Louis, Mo.) and PhosSTOP™ phosphatase inhibitors (Sigma-Aldrich, St. Louis, Mo.). One microgram of extract was used in the reverse transcription step of the assay. Reverse transcription was carried out at 37° C. for 45 min, followed by 15 min at 70° C. The RT product of this first step was assayed in triplicate by quantitative PCR. Levels of reverse transcription activity were determined by the Delta Cq method, compared to the activity in negative controls (water and no nucleotides) that were given Cq scores of 40. 1×10^5 picounits of SuperScript™ II Reverse Transcriptase (ThermoFisher Scientific) were used as a positive control for the assay. Lysates for heat inactivation experiments were incubated for 15 min at 70° C. prior to the reverse transcription step. For inhibitor experiments, lysates were incubated with inhibitor in the presence of all the components of the reaction except for dNTPs. After 10 min at room temperature, dNTPs were added and the reaction was incubated at 37° C. as above. AZT-TP was purchased from TriLink Biotechnologies (San Diego, Calif.).
In another example, the in vitro reverse transcriptase activity assay was conducted with reagents and protocol as shown in Tables 8-11.

[2] = system: APP gencDNAs in CHO cells; test: Induction of APP gencDNAs in APP 751-transfected CHO cells treated with hydrogen peroxide, genomic DNA PCR; assay type: cell-based; conditions: AZT 100 μM and ABC 10 μM given together, APP 751 transfection, hydrogen peroxide 0, 5 or 50 μM, FIG. 20B
Method: The method is graphically represented in FIG. 20A. CHO cells were serum-deprived for 2 days, followed by addition of reverse transcriptase (RT) inhibitors azidothymidine (AZT, 100 μM) and abacavir (ABC, 10 μM) (Tocris, Minneapolis, Minn.) until the end of the experiment. Medium was changed daily with fresh RT inhibitors. Cells were transfected with APP 751 by GenJet (SignaGen Laboratories, Gaithersburg, Md.) on day 3, then on day 4 cells were treated with 0 μM, 5 μM, or 50 μM of hydrogen peroxide (Fisher Scientific) for 2 hrs. After 1 day, cells were collected and genomic DNA was extracted for PCR analysis.

Compound | IC50 [1] | production of APP gencDNAs under nucleoside reverse transcriptase inhibitors [2]
azidothymidine triphosphate [AZT-TP] | 18.5 µM | –
Nc1nc(NC2CC2)c2ncn([C@H]3C=C[C@@H](CO)C3)c2n1 [abacavir] | – | also required to produce gencDNAs
